Reference: publication PMC7781311 (bioRxiv, 2021)
Like-named read-outs stand apart in the source and are kept apart here.

Tests used:
[1] = tested on: SARS-CoV-2-S pseudotyped particles (PP); type: cell-based; conditions: Calu-3 cells
Calu3 cells = conditions: same protocol without PP, ATP content
in vitro = conditions: human
TMPRSS2 = TMPRSS2 (Homo sapiens, UniProt O15393); experiment: TMPRSS2 biochemical; conditions: enzyme assay, maximal efficacy
Sequence of TMPRSS2 (O15393 whole entry): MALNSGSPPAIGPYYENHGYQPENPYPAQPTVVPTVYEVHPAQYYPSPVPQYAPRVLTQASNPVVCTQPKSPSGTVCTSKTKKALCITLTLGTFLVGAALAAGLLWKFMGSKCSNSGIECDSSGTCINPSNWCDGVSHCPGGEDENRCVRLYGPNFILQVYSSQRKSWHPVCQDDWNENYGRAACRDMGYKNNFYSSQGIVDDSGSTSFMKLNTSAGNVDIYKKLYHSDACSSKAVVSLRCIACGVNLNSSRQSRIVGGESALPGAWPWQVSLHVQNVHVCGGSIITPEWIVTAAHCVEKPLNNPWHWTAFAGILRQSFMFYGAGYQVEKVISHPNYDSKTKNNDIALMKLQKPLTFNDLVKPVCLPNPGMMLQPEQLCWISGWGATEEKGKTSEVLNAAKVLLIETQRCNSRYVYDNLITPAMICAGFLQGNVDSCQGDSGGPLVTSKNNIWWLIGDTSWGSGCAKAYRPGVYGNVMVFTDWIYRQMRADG

Compound	Activity in the PP entry assay (in words) [1]	Calu3 cytotoxicity Efficacy (Calu3 cells) [%]	IC50 (in vitro) [µM]	TMPMSS2 Efficacy (TMPRSS2) [%]	Activity in the PP entry assay (in words) ([1]; listed as Gabexate)	Activity in the PP entry assay (in words) ([1]; listed as gabexate)
N=C(N)c1ccc2cc(OC(=O)c3ccc(N=C(N)N)cc3)ccc2c1 [NCGC00160398, Nafamostat]	high potency and efficacy	38.74	15.8			
COC(=O)[C@H](Cc1cccc(C(=N)N)c1)[C@@H](C)NC(=O)c1ccc(-c2cc[n+]([O-])cc2)cc1 [NCGC00378763, Otamixaban]	efficient activity	0				
C=Cc1cc(C(=O)Nc2ccc(C(=N)N)cc2)c(-c2ccc(C(=O)NCC3CC3)nc2C(=O)O)cc1OC [NCGC00522636, Avoralstat]	comparable inhibition activity to camostat					
CN(C)C(=O)COC(=O)Cc1ccc(OC(=O)c2ccc(NC(=N)N)cc2)cc1 [NCGC00167526, Camostat]	high potency and efficacy	0		100		
CCOC(=O)c1ccc(OC(=O)CCCCCNC(=N)N)cc1 [NCGC00025297, Gabexate]		0			inactive	did not exhibit activity
